Entries after “also recorded” stand apart in the source; their conditions may differ. Where two headings read alike, the source gives them in different places.
Tests used:
A375 = test: Cytotoxicity assay (MTS, 72 h); conditions: Homo sapiens;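 note: compounds tested from 0.1 nM up to 3 µM in four replicate wells, with absorbance read at 490 nm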
PC3/TxR = test: Cytotoxicity assay (MTS, 72 h); format: cell-based; conditions: Homo sapiens, Table 6, paclitaxel-resistant, read-out: IC50 (nM) Prostate cancer PC3/TxR
Protocol: Biology. Cell culture and Reagents. […] MIA Paca-2 pancreatic cancer cells were cultured in media also supplemented with 2.5% horse serum. PANC-1 and PC-3 were cultured in RPMI 1640 medium (Gibco, Carlsbad, Calif.) supplemented with 10% FBS and 1% antibiotic/antimycotic mixture. […] For biological experiments, pyrimidine dihydroquinoxalinone derivatives were dissolved in DMSO to create 20 mM stock solutions and stored at −20° C. until use.
(§1) Cytotoxicity Assay. […] Each experiment consisted of four replicates.

PC3 = test: Cytotoxicity assay (MTS, 72 h); format: cell-based; conditions: Homo sapiens, PC-3; Table 6; read-out: IC50 (nM) Prostate cancer PC3
Source text: as §1

[1] = Tolerability assessment of 5v in healthy mice; format: in vivo
A375/TxR cells = test: Cell cycle analysis (PI, flow cytometry); format: cell-based, human; conditions: 5v 1, 2, 5 nM, 24 h
DU-145 = test: Cytotoxicity assay (MTS, 72 h); format: cell-based; conditions: Homo sapiens, DU-145, read-out: IC50 ± SEM (nM) DU-145; Table 2
Mia PaCa-2 = test: Colony formation assay (PDAC); format: cell-based, human; conditions: tested 1, 2.5, 5 nM
Protocol: Cells were seeded at 1000 cells per well in 6-well plates in triplicates and treated with vehicle control or 1-5 nmol/L test compounds for 11 to 14 days. The colonies were fixed with 100% methanol and stained with 0.5% crystal violet. Colony area was quantified with Image J software.

PANC-1-Luc xenografts = test: PANC-1-Luc subcutaneous xenograft model; format: in vivo, NSG mice
Protocol: All animal procedures were performed in accordance with the protocols approved by the Institutional Animal Care and Use Committee (IACUC) at UTHSC. Two pancreatic cancer cell lines, Mia PaCa-2-Luc and PANC-1-Luc, were used in this study. 50 μL of Mia PaCa-2-Luc (5×10^6 cells in HBSS) or PANC-1-Luc (3×10^6 cells in HBSS) cell suspension was mixed with same volume of Matrigel (1:1 mixture) right before use. Cell mixture was subcutaneously injected to the right flank of each NSG mice (male, 6-8 weeks). […] The control group received no treatment. Treatment started when the average tumor size reached 70-100 mm^3. […] Tumor volume and body weight were measured twice per week. Tumor volume was calculated by the equation: volume (mm^3)=0.5×(length×width^2). All animals were euthanized at the end of the study. Tumors were excised, recorded for ex-vivo weight and size, and imaged.

A549/TxR = test: cells; conditions: Homo sapiens, read-out: IC50 ± SEM (nM) A549/TxR
A549 = test: cells; conditions: Homo sapiens, A549, read-out: IC50 ± SEM (nM) A549
[2] = rats
22RV1 xenografts = test: 22RV1 prostate cancer xenograft model; format: in vivo, NSG mice; conditions: 1 mg/kg IV, 2 times/week
Protocol: FIG. 19D: Similarly, for 22RV1 prostate cancer xenograft model, we inoculated 2.5×10^6 22RV1 cells subcutaneously into the right flank of each mouse. The cells were prepared in the mixture of FBS and phenol red-free DMEM medium and Matrigel (1:1 ratio). […] We measured tumor volume 2 times a week until reaching the study endpoint.

[3] = molecular target: T1, tubulin protein from bovine brain (Bos taurus, UniProt P81947+Q6B856); test: Tubulin polymerization assay (FIG. 5A); format: biochemical; conditions: 10 μM, cell-free
T1 construct: tubulin protein from bovine brain origin; purchased Cytoskeleton, Denver, Colo; host or cells: bovine brain
Protocol: Tubulin polymerization reaction was initiated by adding 100 μL of tubulin protein from bovine brain origin (3 mg/ml, Cytoskeleton, Denver, Colo.) into 10 μM of test compounds in general tubulin buffer (80 mM PIPES, 2.0 mM MgCl2, 0.5 mM EGTA, and 1 mM GTP) according to the manufacturer protocol. The reaction kinetics were recorded in every thirty seconds for 1 h at 37° C. and a microplate reader equipped with absorbance settings at 340 nm wavelength was used for this purpose. The experiment was performed in duplicates.

[4] = Microsomal stability assay; conditions: Table 3; liver microsomes; mean (% CV)
[5] = Toxicity of 5m at higher dose in mice; format: in vivo; conditions: 5 mg/kg
[6] = tested on: MDA-MB-231/VxR xenografts; test: Orthotopic MDA-MB-231/VxR xenograft model; format: in vivo, NSG mice; conditions: 5m IV 1×/wk; Compound 17ya 20 mg/kg 3×/wk
[7] = Microsomal stability assay; conditions: Table 3; liver microsomes; mean (% CV); remark: listed apart in the source

T1 sequence (P81947 whole entry): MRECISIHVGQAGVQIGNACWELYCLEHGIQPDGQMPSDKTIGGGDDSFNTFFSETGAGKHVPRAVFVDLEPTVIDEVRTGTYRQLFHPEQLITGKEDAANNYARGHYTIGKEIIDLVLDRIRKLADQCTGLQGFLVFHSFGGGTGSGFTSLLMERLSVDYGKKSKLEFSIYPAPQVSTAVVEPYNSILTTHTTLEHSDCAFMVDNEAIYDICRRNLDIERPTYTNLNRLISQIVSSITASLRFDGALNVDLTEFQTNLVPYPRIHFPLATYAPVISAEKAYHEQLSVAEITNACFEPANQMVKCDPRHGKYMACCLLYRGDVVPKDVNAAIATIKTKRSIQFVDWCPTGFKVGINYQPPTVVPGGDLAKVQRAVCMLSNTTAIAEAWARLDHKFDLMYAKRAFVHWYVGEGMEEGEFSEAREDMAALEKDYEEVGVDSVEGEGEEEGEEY
T1 sequence (Q6B856 whole entry): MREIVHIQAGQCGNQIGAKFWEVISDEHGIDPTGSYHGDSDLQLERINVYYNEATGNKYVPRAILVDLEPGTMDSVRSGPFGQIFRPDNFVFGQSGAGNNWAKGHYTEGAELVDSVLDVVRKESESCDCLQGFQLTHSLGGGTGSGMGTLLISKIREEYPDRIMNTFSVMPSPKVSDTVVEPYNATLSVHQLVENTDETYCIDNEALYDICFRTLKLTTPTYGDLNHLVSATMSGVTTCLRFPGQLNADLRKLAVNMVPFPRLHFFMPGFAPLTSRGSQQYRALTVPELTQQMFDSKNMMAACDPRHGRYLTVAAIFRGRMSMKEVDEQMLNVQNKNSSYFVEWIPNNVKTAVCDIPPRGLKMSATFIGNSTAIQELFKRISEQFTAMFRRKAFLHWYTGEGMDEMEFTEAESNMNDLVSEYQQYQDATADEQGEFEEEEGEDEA

SMILES: CCNc1nc2c(c(N3CC(=O)Nc4cc(OC)ccc43)n1)CCC2 [Compound 5v, 4-(2-(ethylamino)-6,7-dihydro-5H-cyclopenta[d]pyrimidin-4-yl)-7-methoxy-3,4-dihydroquinoxalin-2(1H)-one]
- IC50 (A375; A-375, read-out: IC50 (nM) Melanoma A375, Table 1): 0.7 ± 0.1 nM
- IC50 (A375; A-375, read-out: IC50 (nM) Melanoma Cancer A375, Table 6): ~1.6 nM
- IC50 (A375; A-375, read-out: IC50 ± SEM (nM) A375, Table 2): 0.4 ± 0.04 nM
- IC50 (PC3/TxR): 0.8 ± 0.1 nM
- IC50 (PC3): 1.7 ± 0.1 nM
- tolerability ([1]; 5 mg/kg IP, five times a week): still healthy; also recorded: tolerated at 5 mg/kg IP
- tolerability ([1]; 5 mg/kg and 10 mg/kg IV, 2 times a week): safe and no acute toxicity
- tolerability ([1]; 10 mg/kg IP, five times a week): toxic to mice; also recorded: not 10 mg/kg IP
- G2/M phase arrest (A375/TxR cells): arrested in the G2/M phase to increase dramatically
- IC50 (DU-145): 1.8 ± 0.3 nM

SMILES: COc1ccc2c(c1)NC(=O)CN2c1nc(C)nc2c1CCC2 [Compound 5m, 7-methoxy-4-(2-methyl-6,7-dihydro-5H-cyclopenta[d]pyrimidin-4-yl)-3,4-dihydroquinoxalin-2(1H)-one]
- dose at which colony formation was completely inhibited (Mia PaCa-2): 1 nM
- xenograft tumor growth (PANC-1-Luc xenografts; 1 mg/kg or 2 mg/kg i.v., 1 dose/week for 7 weeks): dose-dependent and significant inhibition of xenograft tumor growth; also recorded: dose-dependently inhibited xenograft tumor growth
- body weight vs control (PANC-1-Luc xenografts; 49 days, two doses): no differences seen in body weight
- IC50 (A549/TxR): 2.8 ± 1.1 nM
- IC50 (A549): 4.5 ± 0.8 nM
- Clearance ([2]; Intravenous (2 mg/kg)): 2.21 L/h/kg
- Cmax ([2]; Intravenous (2 mg/kg)): 0.806 µg/mL
- Volume of distribution ([2]; Intravenous (2 mg/kg)): 23.7 L/kg
- t1/2 ([2]; Intravenous (2 mg/kg), terminal half-life): 882 min
- Cumulative urinary excretion (%) ([2]; Intravenous (2 mg/kg), unchanged form): 0.00134%
- Bioavailability (%) ([2]; Oral (5 mg/kg)): 3.2%
- Cmax ([2]; Oral (5 mg/kg)): 0.0347 µg/mL
- growth of 22RV1 xenografts (22RV1 xenografts): remarkable in inhibiting the growth of 22RV1 xenografts
- effect on microtubule polymerization [3]: significantly inhibited microtubule polymerization
- Metabolic stability in human t1/2 [4]: 53.6 min
- toxicity at higher dose [5]: had toxicity
- tumor growth of MDA-MB-231/VxR xenografts [6]: flat tumor growth curve
- Metabolic stability in mouse t1/2 [7]: 14.4 min

Reference: patent US20230286995A1, “METABOLICALLY STABLE PYRIMIDINYL DIHYDROQUINOXALINONES AS TUBULIN POLYMERIZATION INHIBITORS” (UNIVERSITY OF TENNESSEE RESEARCH FOUNDATION, priority 2022, published 2023)
